{"source": "ChEMBL document CHEMBL3861976", "about": "“Phthalide Derivatives with Anticoagulation Activities from Angelica sinensis” (J Nat Prod, 2016)", "format_in_all_cases": "functional, cell-free", "key": {"[1]": {"species_on_record": "Oryctolagus cuniculus", "assay": "Anticoagulant activity in New Zealand White rabbit plasma assessed as prolongation of activated partial thromboplastin time at 1 mM after 1 min"}, "[2]": {"species_on_record": "Oryctolagus cuniculus", "assay": "Anticoagulant activity in New Zealand White rabbit plasma assessed as prolongation of thrombin time at 1 mM incubated for 3 mins followed by thrombin addition"}, "[3]": {"species_on_record": "Oryctolagus cuniculus", "assay": "Anticoagulant activity in New Zealand White rabbit plasma assessed as decrease in fibrinogen level at 1 mM after 3 mins"}}, "note": "Active and inactive are the calls of the source. The calls are words filed in the database; no cut-off is given here.", "data": [{"molecule": "CCCCC(=O)[C@]12CC[C@H](C=C1C(=O)OC)[C@@H](CCC)[C@@]21OC(=O)C2=C[C@H]3CC[C@]21OO3", "values": [{"measurement": "Activity", "setting": "[1]", "value": "Active"}, {"measurement": "Activity", "setting": "[2]", "value": "Active"}, {"measurement": "Activity", "setting": "[3]", "value": "Active"}]}, {"molecule": "CCC/C=C1\\OC(=O)C2=C1CC[C@@H]1[C@@H]3CCC4=C(C(=O)OC45[C@H](CCC)[C@@H](CCC)[C@@]54OC(=O)C5=C4CCC=C5)[C@@H]3[C@H]21", "note": "(some centres undefined)", "values": [{"measurement": "Activity", "setting": "[3]", "value": "Active"}]}]}
